Source: patent publication EP3666770A1, “NOVEL HETEROCYCLIC COMPOUNDS AS CDK8/19 INHIBITORS” (Joint Stock Company "Biocad", priority 2017, dated 2019)
Read-outs that look alike come from different tables or passages of the source.

Assays:
HL-60 = experiment: Cell-based antiproliferative test (AlamarBlue), HL-60; details: Homo sapiens, HL-60, 120 h, 120 h incubation; average values of several tests; read-out: HL-60 IC50, mkM
Method: (§1) Antiproliferative activity of CDK8 inhibitors according to the present invention was measured in a cell-based test on continuous cell cultures MV4-11 (biphenotypic myelomonocytic leukemia, ATCC® CRL-9591™), KG-1 (acute myeloid leukemia, ATCC® CCL-246™), HL-60 (acute promyelocytic leukemia, ATCC® CCL-240™) using a vital stain AlamarBlue (ThermoFisher, #DAL1100). The cells were grown in RPMI-1640 (PanEco, #C330p) medium with addition of 10% FBS (Gibco, #16140-071); washed and resuspended in culture medium with 10% FBS (Gibco, #16140-071) in 96-well culture plates (Corning, #3599) with ≈ 10 ×10^3 cells in […] of medium per well. The compounds in question were dissolved in DMSO and diluted with a medium with 10% FBS (Gibco, #16140-071) to a final concentration ranging form 0 to 100 µM. […] of diluted compounds were then added to each well (final DMSO concentration was less than 1%) and incubated under 5% CO2 atmosphere at 37°C for 120 h. After incubating, 15 µL of AlamarBlue (ThermoFisher, #DAL1100) reagent was added per well, contents of plates were mixed in an orbital shaker (Biosan, Latvia) and further incubated for 3-5 h at 37°C under 5% CO2 atmosphere. Number of living cells was estimated using a microplate spectrophotometer (Tecan Infinite M200Pro, Switzerland) measuring fluorescent signal at the excitation wavelength (λEx) of 540 nm and emission wavelength (λEm) of 590 nm.
(§2) IC50 was calculated using Magellan 7.2 software (Tecan, Switzerland) approximating experimental points by four-parameter logistic model with the optimization by Levenberg-Marquardt (table 7, table 7).

KG-1 = experiment: Cell-based antiproliferative test (AlamarBlue), KG-1; details: Homo sapiens, KG-1; 120 h incubation; average values of several tests; read-out: KG-1 IC50, mkM
Method: as §1, §2

[1] = Chemical stability in human blood plasma; assay type: in vitro ADME; details: pooled human blood plasma; 10 µM; 4 hours at 37°C; substance amount in % after thermostatting
Method: (§3) Chemical stability of the compounds described herein was determined in simulated gastric fluid and human blood plasma.
(§4) Determination of stability in human blood plasma was performed using pooled human blood plasma taken from ten healthy donors. The initial candidate solution (10 mM in DMSO) was diluted with pooled blood plasma to a concentration of […] (test solution). The test solution was incubated in a dry block thermostat for 4 hours at 37°C. HPLC with Agilent 1200 liquid chromatography system (Agilent, USA) was employed to determine peak areas of the compounds in test samples, said peak areas corresponding to the initial test time (prior to incubation) and the final test time (after incubation in a dry block thermostat for 4 hours at 37°C), proteins were preliminarily precipitated with acetonitrile. Chromatographic analysis was performed in a gradient elution regime with a flow rate of 1 mL/min. Substance amount in % in a sample after thermostatting was determined.

[2] = Chemical stability in simulated gastric fluid (SGF); assay type: physicochemical; details: SGF without enzymes, pH=1,4; 10 µm; 2 hours at 37°C; substance amount in % after thermostatting
Method: as §3
as §4, with “SGF concentrate without enzymes, pH=1,4 (Sigma Ireland, cat#01651)” for “Determination of stability in human blood plasma”, “used as simulated gastric fluid. Initial” for “performed using pooled human blood plasma taken from ten healthy donors. The initial”, “an SGF working solution” for “pooled blood plasma”, “2” for “4”, “37°C).” for “37°C), proteins were preliminarily precipitated with acetonitrile.”

[3] = General cytotoxicity test on HepG2 cells; assay type: cell-based; details: human, 72 h incubation, 200 to 0.78 µM, average values of several tests, read-out: Hep-G2 CC50, mkM
Method: Cell viability was assessed using the above method. Table 6. […] The results are presented as average values of activity obtained in several tests.

MV4-11 = experiment: Cell-based antiproliferative test (AlamarBlue), MV4-11; details: Homo sapiens, MV4-11, 120 h, 120 h incubation; average values of several tests; read-out: MV-4-11 IC50, mkM
Method: as §1, §2

[4] = Enzyme stability in human liver microsomes; assay type: in vitro ADME; details: pH 7.4; 0,5 mg/mL pooled human liver microsomes; 10 µM compound; 37°C; pH=7,4
Method: Measuring of candidates' enzyme stability enabled estimation of the stability of the present compounds towards the action of enzymes in liver microsomes.
Enzyme degradation rate was measured by incubating the reaction mixture in a dry block thermostat at 37°C, said reaction mixture comprising 0,5 mg/mL of pooled human liver microsomes (XenoTech, USA, cat#H2620), 10 µM compound, 2 mM β-nicotinamide adenine dinucleotide (Carbosynth, UK, cat#NN10871) and 4 mM magnesium chloride in 0,1 M sodium-phosphate buffer, pH=7,4. The reaction was quenched with acetonitrile (100 µL of acetonitrile / 100 µL of the reaction mixture). After quenching, the samples were centrifuged at 10000 rpm for 10 minutes. Supernatant fluid was tested by chromatographic technique using Agilent1200 (Agilent, USA). Chromatographic analysis was performed in a gradient elution regime with a flow rate of 1 mL/min. A graph of the logarithm of substance's peak area as a function of time was made. The dependent factor of the line corresponded to the elimination rate constant K based on which the drug's half-life t1/2 and degradation rate CLint were calculated: Elimination rate constant (k) = (−gradient) [formula] [formula] V(μL/mg) = (volume of incubation(μL))/(protein in the incubation(mg)) [formula] [formula]

[5] = Permeability through Caco-2 cell monolayer; assay type: in vitro ADME; details: human, Caco-2; for Papp A→B at 2 h, 10 µM: A->B transfer, pH 6.5 -> pH 7.4, 2 hours at 37 °C; for efflux ratio at 2 h, 10 µM: efflux = Papp B-A / Papp A-B
Method: Estimation of permeability through Caco-2 cell monolayer enables assessment of the ability of the substances to penetrate through biological membranes by means of both active and passive transport.
Intestinal epithelial cells Caco-2 were grown on filter inserts (pore size 0.4 µm, BD Falcon with High Density) for 21 days; monolayer integrity was then checked using Lucifer Yellow (Sigma-Aldrich, USA) according to the standard protocol. In A->B transfer ("intestinal lumen" - "blood stream" transfer), solutions of the test substances in buffer, pH 6.5 (HBSS, 10 mM HEPES, 15 mM glucose) at a concentration of 10 µM were added to the upper chamber; whereas the lower chamber was filled with buffer, pH 7.4 (HBSS, 10 mM HEPES, 15 mM Glucose, 1% BSA). In B->A transfer ("blood stream" - "intestinal lumen" transfer), the upper chamber was filled with buffer, pH 6.5, whereas the solutions of the test substances in buffer, pH 7.4, at a concentration of 10 µM were added to the lower chamber. A highly permeable substance propranolol was used as a control.
After 2 hours incubation at 37 ° C under an atmosphere containing 5% CO2, the amounts of the test substances in the upper and lower chambers were measured by HPLC using an Agilent1200 HPLC system (Agilent, USA), proteins were preliminarily precipitated with acetonitrile. Chromatographic analysis was performed in a gradient elution regime with a flow rate of 1 mL/min. The peak areas corresponding to the compounds were detected on chromatograms.
The value was calculated using the formula: efflux = Papp B−A /Papp A−B , [formula] where • Papp A-E - the value of permeability direct analysis A→ B; • Papp B-A - the value of the permeability of the reverse analysis B→ A.

Cn1cc(-c2ccc(-n3cnc4ccc(C(=O)N5CCC5)cc43)cc2)cn1 [CDK8-1-18, Azetidin-1-yl(1-(4-(1-methyl-1H-pyrazol-4-yl)phenyl)-1H-benzo[d]imidazol-6-yl) methanone]
IC50 (HL-60): > 100 µM | IC50 (KG-1): 2.13 µM | Stability in blood plasma, % [1]: 100% | Stability in SGF, % [2]: 100% | CC50 at 72 h ([3]; HepG2 cells): > 100 µM | IC50 (MV4-11): 4.8 µM | microsomal CLint at 10 µM [4]: 14.6 µL/min/mg

Cn1cc(-c2ccc(-c3ccc4nccc(C(=O)N5CCCCC5)c4c3)cc2)cn1 [CDK8-5-8, (6-(4-(1-Methyl-1H-pyrazol-4-yl)phenyl)quinolin-4-yl) (piperidin-1-yl)methanone]
IC50 (HL-60): 24.8 µM | IC50 (KG-1): 17.5 µM | Stability in blood plasma, % [1]: 98.2% | Stability in SGF, % [2]: 100% | CC50 at 72 h ([3]; HepG2 cells): > 50 µM | IC50 (MV4-11): 3.73 µM

Cn1cc(-c2ccc(-c3cncc4ncc(N5CCCC5=O)cc34)cc2)cn1 [CDK8-3-17, 1-(5-(4-(1-Methyl-1H-pyrazol-4-yl)phenyl)-1,7-naphthyridin-3-yl)pyrrolidin-2-one]
IC50 (HL-60): 46.5 µM | IC50 (KG-1): 3.93 µM | Stability in blood plasma, % [1]: 100% | Stability in SGF, % [2]: 100% | CC50 at 72 h ([3]; HepG2 cells): > 20 µM | IC50 (MV4-11): 8.85 µM | microsomal CLint at 10 µM [4]: 10.7 µL/min/mg

COC1CN(C(=O)c2cnc3cncc(-c4ccc(-c5cnn(C)c5)cc4)c3c2)C1 [CDK8-3-15, (3-Methoxyazetidin-1-yl)(5-(4-(1-methyl-1H-pyrazol-4-yl)phenyl)-1,7-naphthyridin-3-yl) methanone]
IC50 (HL-60): > 60 µM | IC50 (KG-1): 1.13 µM | Stability in blood plasma, % [1]: 75.1% | Stability in SGF, % [2]: 99.3% | CC50 at 72 h ([3]; HepG2 cells): > 100 µM | IC50 (MV4-11): 2.45 µM | microsomal CLint at 10 µM [4]: 15.2 µL/min/mg

Cn1cc(-c2ccc(-c3cncc4ncc(C(=O)N5CCCC5)cc34)cc2)cn1 [CDK8-3-16, (5-(4-(1-Methyl-1H-pyrazol-4-yl)phenyl)-1,7-naphthyridin-3 - yl)(pyrrolidin-1-yl) methanone]
IC50 (HL-60): > 60 µM | IC50 (KG-1): 0.94 µM | Stability in blood plasma, % [1]: 100% | Stability in SGF, % [2]: 100% | CC50 at 72 h ([3]; HepG2 cells): > 100 µM | IC50 (MV4-11): 2.87 µM | microsomal CLint at 10 µM [4]: 27.8 µL/min/mg

O=C(c1cccnc1)c1c[nH]c2ncc(-c3ccc(N4CCOCC4)cc3)cc12 [CDK8-4-37, (5-(4-Morpholinophenyl)-1H-pyrrolo[2,3-b]pyridin-3-yl) (pyridin-3-yl)methanone]
IC50 (KG-1): 5 µM | Stability in blood plasma, % [1]: 100% | Stability in SGF, % [2]: 100% | CC50 at 72 h ([3]; HepG2 cells): 118 µM | IC50 (MV4-11): 0.13 µM | Papp A→B at 2 h, 10 µM [5]: 8.63 ×10⁻⁶ cm/s | efflux ratio at 2 h, 10 µM [5]: 1.08

CN(C)c1ccc(-c2cnc3[nH]cc(C(=O)c4ccncc4)c3c2)cc1 [CDK8-4-40, (5-(4-(Dimethylamino)phenyl)-1H-pyrrolo[2,3-b]pyridin-3-yl) (pyridin-4-yl) methanone]
IC50 (KG-1): 25 µM | Stability in blood plasma, % [1]: 100% | Stability in SGF, % [2]: 100% | CC50 at 72 h ([3]; HepG2 cells): > 100 µM | IC50 (MV4-11): 5.56 µM | microsomal CLint at 10 µM [4]: 35 µL/min/mg

COc1cc(-c2cnc3[nH]cc(C(=O)c4ccncc4)c3c2)ccc1N1CCOCC1 [CDK8-4-31, (5-(3-Methoxy-4-morpholinophenyl)-1H-pyrrolo[2,3-b]pyridin-3-yl) (pyridin-4-yl) methanone]
IC50 (KG-1): 21.7 µM | Stability in SGF, % [2]: 99.9% | CC50 at 72 h [3]: > 100 µM | IC50 (MV4-11): 0.61 µM | Papp A→B at 2 h, 10 µM [5]: 36.1 ×10⁻⁶ cm/s | efflux ratio at 2 h, 10 µM [5]: 0.35

O=C(c1ccncc1)c1c[nH]c2ncc(-c3ccc(N4CCOCC4)cc3)cc12 [CDK8-4-38, (5-(4-Morpholinophenyl)-1H-pyrrolo[2,3-b]pyridin-3-yl) (pyridin-4-yl)methanone]
IC50 (KG-1): 60 µM | Stability in blood plasma, % [1]: 100% | Stability in SGF, % [2]: 100% | CC50 at 72 h ([3]; HepG2 cells): > 100 µM | IC50 (MV4-11): 0.39 µM | Papp A→B at 2 h, 10 µM [5]: 13.9 ×10⁻⁶ cm/s | efflux ratio at 2 h, 10 µM [5]: 0.28 | microsomal CLint at 10 µM [4]: 20 µL/min/mg

CN(C)c1ccc(-c2cnc3[nH]cc(C(=O)c4cccnc4)c3c2)cc1 [CDK8-4-39, (5-(4-(Dimethylamino)phenyl)-1H-pyrrolo[2,3-b]pyridin-3-yl) (pyridin-3-yl)methanone]
IC50 (KG-1): 27.7 µM | Stability in blood plasma, % [1]: 100% | Stability in SGF, % [2]: 100% | CC50 at 72 h ([3]; HepG2 cells): > 100 µM | IC50 (MV4-11): 0.19 µM | microsomal CLint at 10 µM [4]: 23.6 µL/min/mg

O=C(c1ccc2ncn(-c3ccc(-c4cn[nH]c4)cc3)c2c1)N1CCC1 [CDK8-1-5, (1-(4-(1H-Pyrazol-4-yl)phenyl)-1H-benzo[d]imidazol-6-yl)(azetidin-1-yl) methanone]
IC50 (HL-60): > 60 µM | IC50 (KG-1): 4.71 µM | Stability in blood plasma, % [1]: 98.1% | Stability in SGF, % [2]: 99.5% | CC50 at 72 h ([3]; HepG2 cells): 81.1 µM | IC50 (MV4-11): 1.24 µM
